In the test the test system is SRS-A release. Description: Inhibition of SRS-A release from sensitized guinea pig lung fragments challenged with ovalbumin (bioassay on guinea pig ileum). In kind it is cell-based. To be noted: Cavia porcellus, read-out: Inhibition of SRS-A Release, Percent Inhibition; for inhibition at 1 µM: Drug Concentration 1 × 10^-6 M; for inhibition at 30 µM: Drug Concentration 3 × 10^-5 M; for inhibition at 3 µM: Drug Concentration 3 × 10^-6 M; for inhibition at 10 µM: Drug Concentration 1 × 10^-5 M. The protocol:
Male, Hartley guinea pigs, usually 1-2 weeks old were sensitized with respect to ovalbumin by intraperitoneal administration of 0.15 ml. hyperimmune serum obtained from guinea pigs actively sensitized against ovalbumin. After 2 days or more, the animals were decapitated, lungs were excised and perfused through the pulmonary artery with Krebs' bicarbonate solution of the following composition in mmoles/liter: KCl, 4.6; CaCl2.2H2 O, 1.8; KH2 PO4, 1.2; MgSO4. 7H2 O, 1.2; NaCl, 118.2; NaHCO3, 24.8; and dextrose, 10.0.Poorly perfused and bloody areas were discarded. Normal lung was cut into 1 mm. cubes with a McIlwain tissue chopper, washed with Krebs' solution and divided into 400 mg. aliquots. The fragmented tissue was then incubated at 37° C. for 15 minutes in Krebs' solution containing indomethacin to optimize SRS-A release and an appropriate concentration of experimental drug. Antigen (ovalbumin) was then added to make a final concentration of 1×10^-5 g./ml. Fifteen minutes later, the incubation medium was decanted and centrifuged at 3,000×g at 4° C. for 5 minutes. The supernatant solution was collected and assayed for SRS-A using a computerized bioassay that employs the isolated guinea pig ileum (Fleisch et al., J. Pharmacol. Exp. Ther., 209, 238-243, (1979)). Release of SRS-A in the presence of an experimental drug was compared to a control sample and the results expressed as percent inhibition of SRS-A release.

For `O=C1C=C(Nc2ccccc2)C(=O)c2nccnc21` [Example 3, 6-anilino-5,8-quinoxalinedione], the inhibition at 1 µM was determined as 8%, the inhibition at 30 µM is 75% and the inhibition at 3 µM worked out at 22%.

With `CN(C1=CC(=O)c2nccnc2C1=O)c1ccccc1` [Example 4, 6-(N-methylanilino)-5,8-quinoxalinedione], the inhibition at 10 µM turned out to be 18%, the inhibition at 1 µM was determined as 22% and the inhibition at 30 µM was 59%.

For `O=C1C=C(Nc2ccccc2F)C(=O)c2nccnc21` [Example 5, 6-(2-fluoroanilino)-5,8-quinoxalinedione], the inhibition at 30 µM came to 83% and the inhibition at 3 µM stood at 12%.

For `O=C1C=C(Nc2cccc(Cl)c2)C(=O)c2nccnc21` [Example 6, 6-(3-chloroanilino)-5,8-quinoxalinedione], the inhibition at 30 µM came out at 71% and the inhibition at 3 µM was 28%.

For `O=C1C=C(Nc2cccc(F)c2)C(=O)c2nccnc21` [Example 7, 6-(3-fluoroanilino)-5,8-quinoxalinedione], the inhibition at 10 µM worked out at 67%, the inhibition at 1 µM is 22%, the inhibition at 30 µM was 81% and the inhibition at 3 µM was determined as 48%. The inhibition at 0.3 µM (Drug Concentration 3 × 10^-7 M) was determined as 6%.

With `Cc1nc2c(nc1C)C(=O)C(Nc1ccccc1)=CC2=O` [Example 8, 6-anilino-2,3-dimethyl-5,8-quinoxalinedione], the inhibition at 1 µM came to 31% and the inhibition at 3 µM was 40%.

By inhibition is commonly meant the percentage by which the read-out fell short of the control.

The values are drawn from patent US4486432A, “Quinoxalinedione leukotriene release inhibitors” (Eli Lilly and Company, priority 1982, dated 1984).
